According to the supplement of paper PMC11208160:

Test: recombinant barcode read abundance after kanamycin selection (control-corrected) (log10(CPM+1)); higher = more efficient recombination; sequences stand for … in AGTGCAGAGAAAATCGGCCAGTTTTCTCTGCCTGCAGTCCGCATGCCGT…AGATTTATGCAGCGGACTGCCTTTCTCCCAAAGTGATAAACCGGACAGTATCATGGACCGGTTTTCCCGGTAATCCGTATTTGCAAGGTTGGTTTCACT; site = the 11-nt target
In short: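 The screen was pooled in E. coli and paired targets with IS621 bridge RNA target-binding loops. Recombination efficiency is taken from barcode counts per million at recombinant junctions, averaged and adjusted against the control. Values, in the form log10(CPM+1), come from duplicate plating on chloramphenicol/ampicillin LB agar or on chloramphenicol/ampicillin/kanamycin with 0.1 mM IPTG.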
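Note: IS621 recombinase and bridge RNA in Escherichia coli cells.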

Sequence | recombinant barcode read abundance (log10)
CAGGACTCTTGGGTTCTAACCTGTTGCTT (site CAGGACTCTAA) | 2.85
CAGGCGGCTTGGGTTCTAACCTGTTGCCT (site CAGGCGACTAG) | 0.117
CAGGCGGCTTGGGTTCTAACCTGTTGCCT (site CAGGCGCCTAG) | 0.254
CAGGCGGCTTGGGTTCTAACCTGTTGCCT (site CAGGCGGCTAG) | 0.829
CAGGCGGCTTGGGTTCTAACCTGTTGCCT (site CAGGCGTCTAG) | 0.0685
CAGGGTCCTTGGGTTCTAACCTGTTGCGG (site CAGGGTCCTCC) | 3.55
CAGGGTCCTTGGGTTCTAACCTGTTGCGG (site TAGGGTTCTCC) | 0.0367
CAGTCAGCTTGGGTTCTAACCTGTTGCCT (site CAGTCAGCTAG) | 1.16
CAGTCAGCTTGGGTTCTAACCTGTTGCCT (site GTAAGGACTCC) | 0.0866
CAGTCCTCTTGGGTTCTAACCTGTTGCTG (site CAGTCCTCTCA) | 2.23
CAGTCCTCTTGGGTTCTAACCTGTTGCTG (site CCGTCCTCTCA) | 0.0321
CAGTGAACTTGGGTTCTAACCTGTTGCCT (site CAGTGAACTAG) | 1.55
CAGTGAACTTGGGTTCTAACCTGTTGCCT (site CCGTGAACTAG) | 0.181
CAGTGAACTTGGGTTCTAACCTGTTGCCT (site CGGTGAACTAG) | 0.0595
CAGTGAACTTGGGTTCTAACCTGTTGCCT (site CTGTGAACTAG) | 0.0273
CAGTGGACTTGGGTTCTAACCTGTTGCCT (site CAATGGACTAG) | 0.961
CAGTGGACTTGGGTTCTAACCTGTTGCCT (site CACTGGACTAG) | 0.101
CAGTGGACTTGGGTTCTAACCTGTTGCCT (site CAGTGGACTAG) | 2.04
CAGTGGACTTGGGTTCTAACCTGTTGCCT (site CATTGGACTAG) | 0.0477
CAGTTGTCTTGGGTTCTAACCTGTTGCCT (site AAGTTGTCTAC) | 0.0187
CAGTTGTCTTGGGTTCTAACCTGTTGCCT (site CAGTTGTCTAG) | 1.75
CATAATTCTTGGGTTCTAACCTGTTGCCT (site CATAATTCTAG) | 0.445
CATAATTCTTGGGTTCTAACCTGTTGCCT (site CATCATTCTAG) | 0
CATAATTCTTGGGTTCTAACCTGTTGCCT (site CATGATTCTAG) | 0.0188
CATAATTCTTGGGTTCTAACCTGTTGCCT (site CATTATTCTAG) | 0.0376
CATAGCGCTTGGGTTCTAACCTGTTGCCT (site AGCTTGCCTCT) | 0.0679

Sequence | recombinant barcode read abundance (log10)
CATAGCGCTTGGGTTCTAACCTGTTGCCT (site CATAGCGCTAG) | 0.605
CATAGCTCTTGGGTTCTAACCTGTTGCCT (site AATAGCTCTAG) | 0.527
CATAGCTCTTGGGTTCTAACCTGTTGCCT (site CATAGCTCTAG) | 1.24
CATAGCTCTTGGGTTCTAACCTGTTGCCT (site GATAGCTCTAG) | 0.176
CATAGCTCTTGGGTTCTAACCTGTTGCCT (site TATAGCTCTAG) | 0.337
CATAGGCCTTGGGTTCTAACCTGTTGCAT (site CATAGACCTAT) | 0.23
CATAGGCCTTGGGTTCTAACCTGTTGCAT (site CATAGCCCTAT) | 0.371
CATAGGCCTTGGGTTCTAACCTGTTGCAT (site CATAGGCCTAT) | 0.811
CATAGGCCTTGGGTTCTAACCTGTTGCAT (site CATAGTCCTAT) | 0.105
CATAGTCCTTGGGTTCTAACCTGTTGCAT (site CATAGACCTAT) | 0.213
CATAGTCCTTGGGTTCTAACCTGTTGCAT (site CATAGCCCTAT) | 0.884
CATAGTCCTTGGGTTCTAACCTGTTGCAT (site CATAGGCCTAT) | 0.0509
CATAGTCCTTGGGTTCTAACCTGTTGCAT (site CATAGTCCTAT) | 0.923
CATCCCTCTTGGGTTCTAACCTGTTGCTT (site CATCCCTCTAA) | 1.51
CATCCCTCTTGGGTTCTAACCTGTTGCTT (site CATCCGTCTAA) | 0.0576
CATCCGTCTTGGGTTCTAACCTGTTGCCT (site CATCCGACTAG) | 0.105
CATCCGTCTTGGGTTCTAACCTGTTGCCT (site CATCCGCCTAG) | 0.0457
CATCCGTCTTGGGTTCTAACCTGTTGCCT (site CATCCGGCTAG) | 0.131
CATCCGTCTTGGGTTCTAACCTGTTGCCT (site CATCCGTCTAG) | 1.21
CATCCTACTTGGGTTCTAACCTGTTGCCG (site CATCCTACTAT) | 0.0476
CATCCTACTTGGGTTCTAACCTGTTGCCG (site CATCCTACTCG) | 0.156
CATCCTACTTGGGTTCTAACCTGTTGCCT (site CATCCTACTAG) | 0.259
CATCCTACTTGGGTTCTAACCTGTTGCCT (site TCCAACTCTGT) | 0.153
CATCGGACTTGGGTTCTAACCTGTTGCTA (site CATCGGACTTA) | 0.834
CATCGGACTTGGGTTCTAACCTGTTGCTA (site CATTGTACTTA) | 0.347
CATCGGGCTTGGGTTCTAACCTGTTGCAG (site CATCGGGCTCT) | 1.43

Sequence | recombinant barcode read abundance (log10)
CATCGGGCTTGGGTTCTAACCTGTTGCAG (site CCTCGGGCTCT) | 0.0832
CATCGGGCTTGGGTTCTAACCTGTTGCAG (site CGTCGGGCTCT) | 0.00527
CATCGGGCTTGGGTTCTAACCTGTTGCAG (site CTTCGGGCTCT) | 0.292
CATGATGCTTGGGTTCTAACCTGTTGCCT (site CAAGATGCTAG) | 0.256
CATGATGCTTGGGTTCTAACCTGTTGCCT (site CACGATGCTAG) | 0.487
CATGATGCTTGGGTTCTAACCTGTTGCCT (site CAGGATGCTAG) | 0.00956
CATGATGCTTGGGTTCTAACCTGTTGCCT (site CATGATGCTAG) | 1.86
CATGCCGCTTGGGTTCTAACCTGTTGCCT (site CATGACACTAG) | 0.226
CATGCCGCTTGGGTTCTAACCTGTTGCCT (site CATGCCGCTAG) | 1.73
CATGGGCCTTGGGTTCTAACCTGTTGCCT (site CATGGGCCTAG) | 0.0279
CATGGGCCTTGGGTTCTAACCTGTTGCCT (site CCTGGGCCTAG) | 0.0246
CATGGGCCTTGGGTTCTAACCTGTTGCCT (site CGTGGGCCTAG) | 0.151
CATGGGCCTTGGGTTCTAACCTGTTGCCT (site CTTGGGCCTAG) | 0.174
CATGGGTCTTGGGTTCTAACCTGTTGCCT (site CATGGGTCTAG) | 1.45
CATGGGTCTTGGGTTCTAACCTGTTGCCT (site CCTGGGTCTAA) | 0.0946
CATTAACCTTGGGTTCTAACCTGTTGCCT (site CATTAACCTAG) | 1.15
CATTAACCTTGGGTTCTAACCTGTTGCCT (site TACTAACCTAG) | 0.208
CATTACTCTTGGGTTCTAACCTGTTGCTT (site CATTACTCTAA) | 0.622
CATTACTCTTGGGTTCTAACCTGTTGCTT (site CTTTCCTCTAA) | 0.032
CATTCACCTTGGGTTCTAACCTGTTGCCT (site AATTCACCTAG) | 0.153
CATTCACCTTGGGTTCTAACCTGTTGCCT (site CATTCACCTAG) | 0.39
CATTCACCTTGGGTTCTAACCTGTTGCCT (site GATTCACCTAG) | 0.0621
CATTCACCTTGGGTTCTAACCTGTTGCCT (site TATTCACCTAG) | 0.111
CATTTAGCTTGGGTTCTAACCTGTTGCGG (site AGGGCGCCTAA) | 0.0282
CATTTAGCTTGGGTTCTAACCTGTTGCGG (site CATTTAGCTCC) | 1.06
